Tests used:
Format in all cases: cell-based
[1] = tested on: Staphylococcus aureus (ATCC 29213); experiment: Minimum bactericidal concentration (MBC) assay; design: MBC Staphylococcus aureus: unit: µg/mL; settings: Tables 11-21, no unit printed
Procedure: (§1) First, each of Pseudomonas aeruginosa (ATCC 27853) and Staphylococcus aureus (ATCC 29213) was cultured in 3% (w/v) TSB (tryptic soy broth) liquid medium at 37° C. and 200 rpm for 4 hours, and then further cultured under the same conditions for 3 hours to a concentration of 5×10^6 CFU/ml. Strain solutions were prepared by diluting each of the further cultured strains with SP (sodium phosphate; 10 mM sodium phosphate, 1% TSB) buffer to a final concentration of 2×10^5 CFU/ml.
(§2) Then, each peptide at varying concentrations (0 μg/ml to 300 μg/ml) was dispensed into each well of a 96-well microplate, and 100 μl (1×10^5 CFU/ml) of each of the prepared strain solutions was added thereto, mixed therewith, and allowed to react with the peptide in an incubator at 37° C. for 1 hour.
(§3) In addition, 30 g/L of TS (tryptic soy) and 15 g/L of agar were dissolved in distilled water and sterilized, and then 25 ml of the solution was poured onto a 100 mm round plate and solidified at room temperature for one day or more, thereby preparing a TS agar plate. 10 μl of each reaction solution of the peptide and the strain was plated on the TS agar plate at a constant size, and incubated in an incubator at 37° C. for 18 hours, and then colony formation on the plate was checked. The minimum bactericidal concentration was defined as the minimum concentration of the peptide at which no colony was formed, and the experimental results are shown in Table 1 below.

[2] = tested on: Methicillin-resistant Staphylococcus aureus (MRSA, ATCC 33591); experiment: Minimum bactericidal concentration (MBC) assay; design: unit: µg/mL; settings: Tables 11-21, no unit printed
Procedure: First, each of Pseudomonas aeruginosa (ATCC 27853) and Staphylococcus aureus (ATCC 29213) was cultured in 3% (w/v) TSB (tryptic soy broth) liquid medium at 37° C. and 200 rpm for 4 hours, and then further cultured under the same conditions for 3 hours to a concentration of 5×10^6 CFU/ml. Strain solutions were prepared by diluting each of the further cultured strains with SP (sodium phosphate; 10 mM sodium phosphate, 1% TSB) buffer to a final concentration of 2×10^5 CFU/ml. […]
In addition, 30 g/L of TS (tryptic soy) and 15 g/L of agar were dissolved in distilled water and sterilized, and then 25 ml of the solution was poured onto a 100 mm round plate and solidified at room temperature for one day or more, thereby preparing a TS agar plate. 10 μl of each reaction solution of the peptide and the strain was plated on the TS agar plate at a constant size, and incubated in an incubator at 37° C. for 18 hours, and then colony formation on the plate was checked.
Specifically, each type of bacteria was cultured in 3% (w/v) TSB (tryptic soy broth) liquid medium at 37° C. and 200 rpm for 4 hours, and then further cultured under the same conditions for 3 hours to a concentration of 5×10^6 CFU/ml. Strain solutions were prepared by diluting each of the further cultured strains with SP buffer to a final concentration of 2×10^5 CFU/ml.
Then, the KU-5878 peptide at varying concentrations (0 μg/ml to 300 μg/ml) was dispensed into each well of a 96-well microplate, and 100 μl (1×10^5 CFU/ml) of each of the prepared strain solutions was added thereto, mixed therewith, and allowed to react with the peptide in an incubator at 37° C. for 1 hour.
In addition, 10 μl of each reaction solution of the peptide and the strain was plated on the TS agar plate at a constant size, and incubated in an incubator at 37° C. for 18 hours, and then colony formation on the plate was checked.

CRPA = experiment: Minimum bactericidal concentration (MBC) assay; design: unit: µg/mL; settings: Tables 11-21, no unit printed
[3] = tested on: Pseudomonas aeruginosa (ATCC 27853); experiment: Minimum bactericidal concentration (MBC) assay; design: MBC Pseudomonas aeruginosa: unit: µg/mL; settings: Tables 11-21, no unit printed
Procedure: as §1, §2, §3

[4] = tested on: Pseudomonas aeruginosa, Staphylococcus aureus, CRPA, MRSA; experiment: Increase in antibacterial activity (MBC) compared with KU-5878; settings: mark = antibacterial activity increased compared with KU-5878

Row | Substance | MBC Staphylococcus aureus [1] | MBC MRSA [2] | MBC CRPA (CRPA) | MBC Pseudomonas aeruginosa [3] | Increase in activity [4]
1 | -KMM-KGGKF-TFM-IG-GIR [d 58K 62K 68G 72A 75M] | 15 µg/mL | 18 µg/mL | 15 µg/mL | 16 µg/mL | ◯
2 | -KMMKK-GKFG-F--IGMGIR [d 58K 64G 69T 71M 72A] | 2 µg/mL | 3 µg/mL | 3 µg/mL | 2 µg/mL | ◯
3 | -KMMKKGGKFGTF-AIG-GIR [d 58K 71M 75M] | 3 µg/mL | 4 µg/mL | 2 µg/mL | 4 µg/mL | ◯
4 | -KMMKKGGKFGTF-AIGMGIR [Peptide K4-d58K-d71M] | 8 µg/mL | 10 µg/mL | 10 µg/mL | 10 µg/mL | ◯
5 | -KMMKKGGKFGTFMAIGMGIR [5878-K4-d58K(=d59K)] | 6 µg/mL | 2 µg/mL | 6 µg/mL | 2 µg/mL | ◯
6 | KK---KGGKFGTF-AIG-GIR [d 60M 61M 62K 71M 75M] | 80 µg/mL | 80 µg/mL | 80 µg/mL | 80 µg/mL | ◯
7 | KK-M-KGGKF-TFM-IG-GIR [d 60M 62K 68G 72A 75M] | 4 µg/mL | 5 µg/mL | 4 µg/mL | 4 µg/mL | ◯
8 | KK-MKKGGKFGTF--IGMGIR [d 60M 71M 72A] | 8 µg/mL | 10 µg/mL | 8 µg/mL | 8 µg/mL | ◯
9 | KK-MKKGGKFGTF-AIG-GIR [d 60M 71M 75M] | 2 µg/mL | 2 µg/mL | 3 µg/mL | 2 µg/mL | ◯
10 | KK-MKKGGKFGTF-AIGMGIR [Peptide K4-d60M-d71M] | 10 µg/mL | 12 µg/mL | 10 µg/mL | 10 µg/mL | ◯
11 | KK-MKKGGKFGTFMAIGMGIR [5878-K4-d60M(=d61M)] | 3 µg/mL | 2 µg/mL | 4 µg/mL | 2 µg/mL | ◯
12 | KKIIKKGGKFGTFIAIGIGIR [Peptide K4-4MI] | 2 | 3 | 3 | 3 | ◯
13 | KKMM-K-GKF-TFM-IG-GIR [d 62K 64G 68G 72A 75M] | 4 µg/mL | 4 µg/mL | 4 µg/mL | 4 µg/mL | ◯
14 | KKMM-KGGKF--FM-IG-GIR [d 62K 68G 69T 72A 75M] | 8 µg/mL | 10 µg/mL | 8 µg/mL | 8 µg/mL | ◯
15 | KKMM-KGGKF-TF--IG-GIR [d 62K 68G 71M 72A 75M] | 20 µg/mL | 25 µg/mL | 20 µg/mL | 20 µg/mL | ◯
16 | KKMM-KGGKFGTF-AIG-GIR [d 62K 71M 75M] | 4 µg/mL | 3 µg/mL | 4 µg/mL | 3 µg/mL | ◯
17 | KKMM-KGGKFGTF-AIGMGIR [Peptide K4-d62K-d71M] | 12 µg/mL | 12 µg/mL | 12 µg/mL | 12 µg/mL | ◯
18 | KKMM-KGGKFGTFMAIGMGIR [5878-K4-d62K(=d63K)] | 6 µg/mL | 6 µg/mL | 6 µg/mL | 2 µg/mL | ◯
19 | KKMMKK-GKFGTF-AIG-GIR [d 64G 71M 75M] | 3 µg/mL | 3 µg/mL | 3 µg/mL | 2 µg/mL | ◯
20 | KKMMKK-GKFGTF-AIGMGIR [Peptide K4-d64G-d71M] | 15 µg/mL | 18 µg/mL | 18 µg/mL | 15 µg/mL | ◯
21 | KKMMKK-GKFGTFMAIGMGIR [5878-K4-d64G(=d65G)] | 2 µg/mL | 2 µg/mL | 4 µg/mL | 2 µg/mL | ◯
22 | KKMMKKGG-FGTFMAIGMGIR [Peptide 5878-K4-d66K] | 6 µg/mL | 4 µg/mL | 4 µg/mL | 4 µg/mL | ◯
23 | KKMMKKGGK-GTFMAIGMGIR [Peptide 5878-K4-d67F] | 6 µg/mL | 4 µg/mL | 5 µg/mL | 4 µg/mL | ◯
24 | KKMMKKGGKF-TFMAIGMGIR [Peptide 5878-K4-d68G] | 4 µg/mL | 4 µg/mL | 6 µg/mL | 4 µg/mL | ◯
25 | KKMMKKGGKFG-F--IGMGIR [d 69T 71M 72A] | 2 µg/mL | 4 µg/mL | 3 µg/mL | 2 µg/mL | ◯
26 | KKMMKKGGKFG-F-AIG-GIR [d 69T 71M 75M] | 2 µg/mL | 2 µg/mL | 3 µg/mL | 2 µg/mL | ◯
27 | KKMMKKGGKFG-F-AIGMGIR [Peptide K4-d69T-d71M] | 10 µg/mL | 12 µg/mL | 12 µg/mL | 10 µg/mL | ◯

Source: patent US12115209B2, “ROMO1-derived antimicrobial peptides including lysine substitution and variants thereof” (KOREA UNIVERSITY RESEARCH AND BUSINESS FOUNDATION, priority 2019, dated 2024)
